# Measured values as given in patent US6352958B1, “Cycloimido-substituted benzofused heterocyclic herbicides” (FMC Corporation, priority 1997, dated 2002).
# What was measured:
# Type in all cases: in vivo
# [1] = system: blackgrass (Aloepecurus myosuroides); test: Postemergence herbicidal activity, blackgrass; details: rate of application 0.3 Kg/Ha, rated after 12-17 days
# [2] = system: Johnsongrass (Sorghum halepense); test: Preemergence herbicidal activity, johnsongrass; details: Rate of Application 0.3 Kg/Ha, examined after 12-17 days
# [3] = system: morningglory (Ipomea lacunosa or Ipomea hederacea); test: Preemergence herbicidal activity, morningglory; details: Rate of Application 0.3 Kg/Ha, examined after 12-17 days
# [4] = system: green foxtail (Setaria viridis); test: Preemergence herbicidal activity, green foxtail; details: Rate of Application 0.3 Kg/Ha, examined after 12-17 days
# [5] = system: common cocklebur (Xanthium strumarium L.); test: Postemergence herbicidal activity, cocklebur; details: rate of application 0.3 Kg/Ha, rated after 12-17 days
# [6] = system: field corn (Zea mays var. Pioneer 3732); test: Preemergence herbicidal activity, corn; details: Rate of Application 0.3 Kg/Ha, examined after 12-17 days
# [7] = system: wheat (Triticum aestivum var. Lew); test: Preemergence herbicidal activity, wheat; details: Rate of Application 0.3 Kg/Ha, examined after 12-17 days
# [8] = system: velvetleaf (Abutilon theophrasti); test: Preemergence herbicidal activity, velvetleaf; details: Rate of Application 0.3 Kg/Ha, examined after 12-17 days
# [9] = system: common chickweed (Stellaria media); test: Preemergence herbicidal activity, chickweed; details: Rate of Application 0.3 Kg/Ha, examined after 12-17 days
# [10] = system: wheat (Triticum aestivum var. Lew); test: Postemergence herbicidal activity, wheat; details: rate of application 0.3 Kg/Ha, rated after 12-17 days
# [11] = system: soybean (Glycine max var. Winchester); test: Postemergence herbicidal activity, soybean; details: rate of application 0.3 Kg/Ha, rated after 12-17 days
# [12] = system: common chickweed (Stellaria media); test: Postemergence herbicidal activity, chickweed; details: rate of application 0.3 Kg/Ha, rated after 12-17 days
# [13] = system: field corn (Zea mays var. Pioneer 3732); test: Postemergence herbicidal activity, corn; details: rate of application 0.3 Kg/Ha, rated after 12-17 days
# [14] = system: Johnsongrass (Sorghum halepense); test: Postemergence herbicidal activity, johnsongrass; details: rate of application 0.3 Kg/Ha, rated after 12-17 days
# [15] = system: morningglory (Ipomea lacunosa or Ipomea hederacea); test: Postemergence herbicidal activity, morningglory; details: rate of application 0.3 Kg/Ha, rated after 12-17 days
# [16] = system: green foxtail (Setaria viridis); test: Postemergence herbicidal activity, green foxtail; details: rate of application 0.3 Kg/Ha, rated after 12-17 days
# [17] = system: velvetleaf (Abutilon theophrasti); test: Postemergence herbicidal activity, velvetleaf; details: rate of application 0.3 Kg/Ha, rated after 12-17 days
# [18] = system: soybean (Glycine max var. Winchester); test: Preemergence herbicidal activity, soybean; details: Rate of Application 0.3 Kg/Ha, examined after 12-17 days
# [19] = system: common cocklebur (Xanthium strumarium L.); test: Preemergence herbicidal activity, cocklebur; details: Rate of Application 0.3 Kg/Ha, examined after 12-17 days
# [20] = system: blackgrass (Aloepecurus myosuroides); test: Preemergence herbicidal activity, blackgrass; details: Rate of Application 0.3 Kg/Ha, examined after 12-17 days
Compound,Postemergence herbicidal activity (% control) ALOMY [1],PREEMERGENCE HERBICIDAL ACTIVITY (% CONTROL) SORHA [2],PREEMERGENCE HERBICIDAL ACTIVITY (% CONTROL) IPOSS [3],PREEMERGENCE HERBICIDAL ACTIVITY (% CONTROL) SETVI [4],Postemergence herbicidal activity (% control) XANPE [5],PREEMERGENCE HERBICIDAL ACTIVITY (% CONTROL) CRN [6],PREEMERGENCE HERBICIDAL ACTIVITY (% CONTROL) WHT [7],PREEMERGENCE HERBICIDAL ACTIVITY (% CONTROL) ABUTH [8],PREEMERGENCE HERBICIDAL ACTIVITY (% CONTROL) STEME [9],Postemergence herbicidal activity (% control) WHT [10],Postemergence herbicidal activity (% control) SOY [11],Postemergence herbicidal activity (% control) STEME [12],Postemergence herbicidal activity (% control) CRN [13],Postemergence herbicidal activity (% control) SORHA [14],Postemergence herbicidal activity (% control) IPOSS [15],Postemergence herbicidal activity (% control) SETVI [16],Postemergence herbicidal activity (% control) ABUTH [17],PREEMERGENCE HERBICIDAL ACTIVITY (% CONTROL) SOY [18],PREEMERGENCE HERBICIDAL ACTIVITY (% CONTROL) XANPE [19],PREEMERGENCE HERBICIDAL ACTIVITY (% CONTROL) ALOMY [20]
Cc1cc2c(Cl)ccc(-n3c(=O)cc(C(F)(F)F)n(C)c3=O)c2o1 [Compound 221],40%,95%,100%,100%,60%,85%,60%,100%,80%,50%,95%,100%,60%,70%,100%,70%,100%,70%,–,–
Cc1cc2c(Cl)cc(F)c(-n3c(=O)cc(C(F)(F)F)n(C)c3=O)c2o1 [Compound 222],100%,100%,100%,100%,100%,90%,70%,100%,100%,70%,100%,100%,90%,100%,100%,100%,100%,100%,100%,–
Cn1c(C(F)(F)F)cc(=O)n(-c2c(F)cc(Cl)c3cc(C(C)(C)N)oc23)c1=O [Compound 254],50%,80%,50%,100%,95%,80%,20%,100%,30%,40%,95%,–,80%,80%,70%,100%,100%,25%,50%,60%
CC(=O)OCCc1cc2c(Cl)cc(F)c(-n3c(=O)cc(C(F)(F)F)n(C)c3=O)c2o1 [Compound 260],90%,100%,100%,100%,100%,80%,70%,100%,100%,80%,90%,–,70%,90%,100%,100%,100%,100%,100%,95%
Cc1nc2c(-n3c(=O)cc(C(F)(F)F)n(C)c3=O)c(F)cc(Cl)c2[nH]1 [Compound 363],100%,100%,100%,100%,100%,100%,100%,100%,100%,100%,100%,–,100%,100%,100%,100%,100%,100%,100%,100%
Cn1c(C(F)(F)F)cc(=O)n(-c2c(F)cc(Cl)c3nc(Cc4ccccc4)[nH]c23)c1=O [Compound 376],90%,70%,100%,100%,100%,80%,60%,100%,100%,50%,90%,–,95%,100%,100%,100%,100%,50%,100%,100%
Cn1c(C(F)(F)F)cc(=O)n(-c2c(F)cc(Cl)c3nc(COc4ccccc4)[nH]c23)c1=O [Compound 378],80%,95%,100%,100%,100%,90%,70%,100%,100%,40%,90%,–,90%,100%,90%,100%,100%,90%,100%,80%
